In experiment [1] the target is Glutamate receptor ionotropic, NMDA 1 (Rattus norvegicus, UniProt P35439).
Experiment [2] deals with Cannabinoid receptor 1 (Homo sapiens, UniProt P21554). In kind it is functional, cell-based.
The target in experiment [3] is T1, Progesterone receptor (Homo sapiens, UniProt P06401).
T1 sequence (P06401 whole entry): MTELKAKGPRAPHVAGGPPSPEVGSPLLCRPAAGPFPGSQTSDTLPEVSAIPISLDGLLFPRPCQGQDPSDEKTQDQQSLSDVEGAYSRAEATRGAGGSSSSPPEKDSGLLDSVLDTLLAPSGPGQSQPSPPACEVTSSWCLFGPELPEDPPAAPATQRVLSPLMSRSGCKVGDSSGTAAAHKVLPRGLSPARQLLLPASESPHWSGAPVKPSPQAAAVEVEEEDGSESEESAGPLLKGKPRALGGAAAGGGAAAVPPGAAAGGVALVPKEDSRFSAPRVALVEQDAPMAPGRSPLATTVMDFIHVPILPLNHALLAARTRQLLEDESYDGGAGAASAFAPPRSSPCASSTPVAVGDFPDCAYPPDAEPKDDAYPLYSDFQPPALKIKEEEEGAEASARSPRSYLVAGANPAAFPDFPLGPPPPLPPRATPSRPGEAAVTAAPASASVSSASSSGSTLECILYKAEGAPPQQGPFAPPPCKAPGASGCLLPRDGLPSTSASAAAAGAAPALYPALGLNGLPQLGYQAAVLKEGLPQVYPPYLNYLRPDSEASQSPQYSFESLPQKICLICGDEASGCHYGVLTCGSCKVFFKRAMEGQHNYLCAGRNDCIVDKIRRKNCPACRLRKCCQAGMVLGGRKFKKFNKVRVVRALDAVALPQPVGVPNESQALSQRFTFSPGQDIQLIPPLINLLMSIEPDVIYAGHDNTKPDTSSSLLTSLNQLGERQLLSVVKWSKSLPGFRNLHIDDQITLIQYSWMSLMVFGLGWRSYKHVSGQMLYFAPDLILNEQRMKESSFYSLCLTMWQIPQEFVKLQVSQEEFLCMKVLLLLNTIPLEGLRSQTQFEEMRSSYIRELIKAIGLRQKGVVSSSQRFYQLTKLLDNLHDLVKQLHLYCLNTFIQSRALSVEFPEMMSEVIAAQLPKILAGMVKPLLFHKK
It is filed as functional.

Experiment [4] concerns the target T2, B2 bradykinin receptor (Homo sapiens, UniProt P30411).
T2 sequence (P30411 whole entry): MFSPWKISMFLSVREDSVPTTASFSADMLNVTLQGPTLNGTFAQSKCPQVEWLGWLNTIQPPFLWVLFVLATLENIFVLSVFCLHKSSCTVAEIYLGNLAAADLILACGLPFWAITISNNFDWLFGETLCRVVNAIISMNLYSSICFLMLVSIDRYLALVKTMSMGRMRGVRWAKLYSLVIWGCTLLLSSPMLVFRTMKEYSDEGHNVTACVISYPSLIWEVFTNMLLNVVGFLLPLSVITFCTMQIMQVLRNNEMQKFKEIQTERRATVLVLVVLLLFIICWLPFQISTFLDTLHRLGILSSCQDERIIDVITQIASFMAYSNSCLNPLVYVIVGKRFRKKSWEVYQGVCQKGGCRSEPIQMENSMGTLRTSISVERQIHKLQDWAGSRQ

Experiment [5] addresses T3, Alpha-2A adrenergic receptor (Homo sapiens, UniProt P08913).
T3 sequence (P08913 whole entry): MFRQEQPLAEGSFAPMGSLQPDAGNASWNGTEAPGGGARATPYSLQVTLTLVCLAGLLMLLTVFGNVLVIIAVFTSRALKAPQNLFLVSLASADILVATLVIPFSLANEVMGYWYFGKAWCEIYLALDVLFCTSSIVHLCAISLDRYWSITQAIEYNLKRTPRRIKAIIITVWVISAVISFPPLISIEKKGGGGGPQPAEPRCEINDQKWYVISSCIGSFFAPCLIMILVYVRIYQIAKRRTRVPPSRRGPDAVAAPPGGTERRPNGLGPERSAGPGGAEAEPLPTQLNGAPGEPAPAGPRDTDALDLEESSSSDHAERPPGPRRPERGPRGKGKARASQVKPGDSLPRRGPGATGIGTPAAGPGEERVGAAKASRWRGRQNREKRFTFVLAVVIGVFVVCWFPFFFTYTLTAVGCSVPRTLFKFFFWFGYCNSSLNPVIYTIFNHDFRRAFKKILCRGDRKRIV
It is filed as functional, cell-based.

Experiment [6] addresses T1, Progesterone receptor. It is filed as functional. The source holds these as a separate data set.
Experiment [7] has as its target T4, Thromboxane A2 receptor (Homo sapiens, UniProt P21731).
T4 sequence (P21731 whole entry): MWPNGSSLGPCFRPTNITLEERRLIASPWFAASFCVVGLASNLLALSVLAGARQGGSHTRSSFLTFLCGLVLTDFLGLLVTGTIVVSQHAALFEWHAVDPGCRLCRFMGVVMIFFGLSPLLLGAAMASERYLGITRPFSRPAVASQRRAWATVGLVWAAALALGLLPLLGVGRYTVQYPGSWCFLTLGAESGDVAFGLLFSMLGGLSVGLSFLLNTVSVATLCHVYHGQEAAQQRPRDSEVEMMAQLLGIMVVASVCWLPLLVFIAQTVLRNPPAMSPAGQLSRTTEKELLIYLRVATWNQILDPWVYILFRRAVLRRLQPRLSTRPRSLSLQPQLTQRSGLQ

Experiment [8] has as its target Sodium-dependent dopamine transporter (Homo sapiens, UniProt Q01959).
Experiment [9] has as its target Motilin receptor (Homo sapiens, UniProt O43193).
In experiment [10] the target is T5, 5-hydroxytryptamine receptor 1A (Homo sapiens, UniProt P08908).
T5 sequence (P08908 whole entry): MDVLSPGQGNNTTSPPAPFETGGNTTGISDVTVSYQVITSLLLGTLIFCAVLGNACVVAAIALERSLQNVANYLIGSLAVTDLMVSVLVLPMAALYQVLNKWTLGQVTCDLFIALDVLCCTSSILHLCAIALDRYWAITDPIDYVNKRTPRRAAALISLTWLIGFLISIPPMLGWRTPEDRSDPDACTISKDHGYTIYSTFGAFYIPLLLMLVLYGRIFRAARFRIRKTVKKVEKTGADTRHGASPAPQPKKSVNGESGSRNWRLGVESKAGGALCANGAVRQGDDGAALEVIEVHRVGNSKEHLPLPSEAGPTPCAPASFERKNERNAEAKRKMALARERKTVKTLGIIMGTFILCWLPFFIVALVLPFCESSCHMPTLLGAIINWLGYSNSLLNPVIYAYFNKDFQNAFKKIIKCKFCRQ
It is filed as functional, cell-based.
Note: assay procedure not described here.

Chain of Motilin receptor (O43193 whole entry): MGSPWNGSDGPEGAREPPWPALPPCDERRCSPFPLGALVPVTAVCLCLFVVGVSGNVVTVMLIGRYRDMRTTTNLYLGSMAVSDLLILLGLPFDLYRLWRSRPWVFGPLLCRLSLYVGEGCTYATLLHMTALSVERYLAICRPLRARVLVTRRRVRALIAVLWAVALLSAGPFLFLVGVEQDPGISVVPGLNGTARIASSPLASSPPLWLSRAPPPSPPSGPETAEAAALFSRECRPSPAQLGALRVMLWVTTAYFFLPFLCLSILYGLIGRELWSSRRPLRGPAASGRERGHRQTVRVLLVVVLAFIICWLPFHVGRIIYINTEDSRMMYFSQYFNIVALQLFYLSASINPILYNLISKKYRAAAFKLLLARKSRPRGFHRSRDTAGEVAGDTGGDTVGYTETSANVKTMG
Chain of Sodium-dependent dopamine transporter (Q01959 whole entry): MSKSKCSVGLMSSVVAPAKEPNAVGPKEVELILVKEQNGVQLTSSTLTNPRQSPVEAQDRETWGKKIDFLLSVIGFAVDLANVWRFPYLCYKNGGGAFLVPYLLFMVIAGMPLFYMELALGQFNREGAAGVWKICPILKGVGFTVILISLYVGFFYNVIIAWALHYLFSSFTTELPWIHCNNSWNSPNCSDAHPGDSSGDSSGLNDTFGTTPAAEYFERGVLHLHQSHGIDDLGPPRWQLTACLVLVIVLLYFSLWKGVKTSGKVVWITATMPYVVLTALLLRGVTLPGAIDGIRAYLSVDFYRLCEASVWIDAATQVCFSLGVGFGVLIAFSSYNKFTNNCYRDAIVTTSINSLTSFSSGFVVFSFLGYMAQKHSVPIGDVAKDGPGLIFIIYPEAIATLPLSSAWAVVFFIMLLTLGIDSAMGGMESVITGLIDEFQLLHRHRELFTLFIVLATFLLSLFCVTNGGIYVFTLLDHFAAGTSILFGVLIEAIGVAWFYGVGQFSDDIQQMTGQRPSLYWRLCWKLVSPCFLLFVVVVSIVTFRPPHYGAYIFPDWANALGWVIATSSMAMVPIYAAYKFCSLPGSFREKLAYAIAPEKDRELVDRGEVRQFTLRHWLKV
Chain of Cannabinoid receptor 1 (P21554 whole entry): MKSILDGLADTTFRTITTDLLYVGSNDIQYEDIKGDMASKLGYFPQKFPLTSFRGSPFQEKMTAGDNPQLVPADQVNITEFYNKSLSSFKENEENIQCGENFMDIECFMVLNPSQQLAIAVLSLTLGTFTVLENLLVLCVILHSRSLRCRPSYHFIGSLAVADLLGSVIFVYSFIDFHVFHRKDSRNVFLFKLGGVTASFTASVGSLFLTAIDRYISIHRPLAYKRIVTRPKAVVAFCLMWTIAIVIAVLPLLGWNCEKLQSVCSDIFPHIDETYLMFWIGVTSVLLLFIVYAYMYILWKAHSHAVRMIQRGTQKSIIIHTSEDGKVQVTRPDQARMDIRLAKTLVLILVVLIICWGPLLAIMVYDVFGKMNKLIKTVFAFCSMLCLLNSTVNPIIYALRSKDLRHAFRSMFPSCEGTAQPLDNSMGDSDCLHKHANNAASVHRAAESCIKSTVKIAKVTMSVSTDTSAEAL

In general, AC50 refers to the midpoint of the concentration-response curve, whichever way the signal moves. Take `C[C@@H](NCCCc1cccc(C(F)(F)F)c1)c1cccc2ccccc12`: the AC50 in [1] was > 30 µM; in experiment [2] it was > 30 µM; in experiment [3] it was > 30 µM; in [4], > 3 µM; in experiment [5], > 30 µM; in experiment [6], > 30 µM. Also, the values for the AC50 in [7], in experiment [8] and in experiment [9] were > 30 µM, 6.4 µM and 22 µM, respectively.

With `CCN1CCN(Cc2ccc(Nc3ncc(F)c(-c4cc(F)c5nc(C)n(C(C)C)c5c4)n3)nc2)CC1` [ABEMACICLIB], the AC50 in experiment [10], in experiment [2], in experiment [3], in experiment [5], in experiment [6] and in experiment [8] was > 30 µM throughout. For the same compound, the AC50 in experiment [9] is > 30 µM.

On to `COc1cc2nccc(Oc3ccc(NC(=O)C4(C(=O)Nc5ccc(F)cc5)CC4)cc3)c2cc1OC` [CABOZANTINIB], for which the AC50 is > 30 µM in [10]; > 30 µM in experiment [2]; 24 µM in [3]; 19 µM in [5]; > 30 µM in experiment [6]; > 30 µM in [8]. In addition, the AC50 in experiment [9] was > 30 µM.

In the case of `CN(C)CC[C@@H](c1ccc(Cl)cc1)c1ccccn1` [DEXCHLORPHENIRAMINE], the AC50 was 22 µM in experiment [10]; > 30 µM in [1]; > 30 µM in experiment [2]; > 30 µM in [3]; > 30 µM in experiment [4]; > 30 µM in experiment [5]. Besides, the AC50 in [6], in [7] and in experiment [9] was > 30 µM throughout.

In the case of `CN1C[C@H](C(=O)N[C@]2(C)O[C@@]3(O)[C@@H]4CCCN4C(=O)[C@H](Cc4ccccc4)N3C2=O)C=C2c3cccc4[nH]cc(c34)C[C@H]21` [ERGOTAMINE], the AC50 was > 30 µM in experiment [2]; > 30 µM in experiment [3]; 0.3 µM in [5]; > 30 µM in experiment [6]; > 30 µM in experiment [8]; > 30 µM in experiment [9].

In the case of `CN(C)CCC[C@@]1(c2ccc(F)cc2)OCc2cc(C#N)ccc21` [ESCITALOPRAM], the AC50 in experiment [10], in experiment [1], in experiment [2], in experiment [3], in [4] and in [5] was > 30 µM in each case. The AC50 in [6], in experiment [7] and in [9] was > 30 µM each time.

For `C#C[C@]1(O)CC[C@H]2[C@@H]3CCC4=CC(=O)CC[C@@H]4[C@H]3C(=C)C[C@@]21CC` [ETONOGESTREL], the AC50 in experiment [10], in experiment [1], in [2] and in [5] was > 30 µM each time.

On to `CN(CC1(C)CCCO1)S(=O)(=O)c1ccc(Cl)c(S(N)(=O)=O)c1` (centres undefined) [MEFRUSIDE], for which the AC50 in experiment [10], in experiment [1], in experiment [2] and in experiment [5] was > 30 µM throughout.

`CC(=O)O[C@]1(C(C)=O)CC[C@H]2[C@@H]3C=C(C)C4=CC(=O)CC[C@@H]4[C@H]3CC[C@@]21C` [NOMEGESTROL ACETATE]: the AC50 in experiment [1] is > 10 µM; in [2], > 30 µM; in [5], > 30 µM; in experiment [6] it was 0.028 µM; in [7], > 30 µM; in experiment [8], > 30 µM.

Consider `CC(C)c1nc(N(C)S(C)(=O)=O)nc(-c2ccc(F)cc2)c1/C=C/[C@@H](O)C[C@@H](O)CC(=O)O` [ROSUVASTATIN], for which the AC50 in [10], in [1], in experiment [2], in [3], in experiment [4] and in experiment [5] was > 30 µM throughout. Further, the AC50 in experiment [6], in [8] and in experiment [9] was > 30 µM in each case.

With `OC[C@H]1O[C@@](CO)(O[C@H]2O[C@H](CO)[C@@H](O)[C@H](O)[C@H]2O)[C@@H](O)[C@@H]1O` [SUCROSE], the AC50 in [10], in experiment [1], in experiment [2], in experiment [3], in experiment [4] and in experiment [5] was > 30 µM each time. Besides, the AC50 in experiment [6], in experiment [8] and in [9] was > 30 µM in each case.

In the case of `CCN(CC)CCNC(=O)c1c(C)[nH]c(/C=C2\C(=O)Nc3ccc(F)cc32)c1C` [SUNITINIB], the AC50 is > 30 µM in experiment [1]; > 30 µM in [2]; 2.5 µM in [4]; 24 µM in experiment [5]; 1.7 µM in experiment [6]; 9.1 µM in [7]. The compound further gave an AC50 in experiment [9] of 7.3 µM.

In the case of `CC(C)(C)NCC(O)c1cc(O)cc(O)c1` (centres undefined) [TERBUTALINE], the AC50 in experiment [3], in experiment [4], in [6], in experiment [7], in [8] and in [9] was > 30 µM each time.

For `CC(S)C(=O)NCC(=O)O` (centres undefined) [TIOPRONIN], the AC50 in [10], in [2], in experiment [3], in experiment [5], in experiment [6] and in experiment [8] was > 30 µM throughout. For the same compound, the AC50 in experiment [9] was > 30 µM.

On to `C[C@H](CCC(=O)O)[C@H]1CC[C@H]2[C@@H]3[C@@H](O)C[C@@H]4C[C@H](O)CC[C@]4(C)[C@H]3CC[C@]12C` [URSODIOL], for which the AC50 in [10], in experiment [2], in experiment [5], in [8] and in experiment [9] was > 30 µM in each case.

The values above are taken from ChEMBL document CHEMBL5291721, “A preclinical secondary pharmacology resource illuminates target-adverse drug reaction associations of marketed drugs” (Nat Commun, 2023).
